Test results as given in patent publication US9707200B2, “Metabolism-improving agent comprising rare fatty acid” (KYOTO UNIVERSITY, priority 2012, dated 2017).

Assays:
[1] = target: T1, LXR (Homo sapiens, UniProt Q13133); assay: Antagonizing action on LXR by luciferase assay; type: cell-based; conditions: for antagonizing action on LXR (relative luciferase activity): HepG2 cells, fatty acid + T0901317, 24 hr; for lipid synthesis suppressive action by the antagonizing action on LXR: overall finding from SREBP-1c, SREBP-1, SCD-1, FAS, ACC1, 2, triacylglycerol and LXR luciferase measurements in HepG2 cells
T1 construct: expressed in transfected cells; host or cells: HepG2 (human liver cancer-derived)
T1 sequence (Q13133 1-447): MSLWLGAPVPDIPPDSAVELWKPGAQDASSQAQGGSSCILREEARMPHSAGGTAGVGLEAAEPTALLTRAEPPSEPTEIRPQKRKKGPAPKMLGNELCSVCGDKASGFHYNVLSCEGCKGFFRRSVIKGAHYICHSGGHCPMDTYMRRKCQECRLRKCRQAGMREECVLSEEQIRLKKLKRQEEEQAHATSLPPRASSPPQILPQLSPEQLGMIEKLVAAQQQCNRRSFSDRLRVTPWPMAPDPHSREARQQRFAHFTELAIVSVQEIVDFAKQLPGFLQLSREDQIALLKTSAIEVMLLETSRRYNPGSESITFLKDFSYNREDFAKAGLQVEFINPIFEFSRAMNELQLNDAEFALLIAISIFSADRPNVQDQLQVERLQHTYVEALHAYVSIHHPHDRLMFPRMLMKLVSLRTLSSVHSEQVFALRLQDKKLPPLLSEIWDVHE
Method: In addition, the protein expression level of immature and mature SREBP-1c was measured. Cells treated as mentioned above were dispersed in buffer A (250 mM sucrose, 10 mM HEPES-KOH, 10 mM KCl, 1.5 mM MgCl2, 1 mM EDTA-Na, 1 mM EGTA-Na, pH 7.6) containing a protease inhibitor, passed 20 times through a 23 gauge injection needle, and centrifuged (1,000×g, 4° C., 5 min) to separate into supernatant 1 and precipitate 1. The precipitate 1 was re-dissolved in buffer B (20 mM HEPES-KOH, 0.42 M NaCl, 2.5% glycerol, 1.5 mM MgCl2, 1 mM EDTA-Na, 1 mM EGTA-Na, pH 7.6), and centrifuged (10^5×g, 4° C., 15 min). The obtained supernatant 2 was used as a nuclear fraction (including mature form). The supernatant 1 was further centrifuged (10^5×g, 4° C., 15 min), and the obtained precipitate 2 was dissolved in cell lysate (10 mM Tris-HCl, 100 mM NaCl, 1% SDS, 1 mM EDTA-Na, 1 mM EGTA-Na) and used as a membrane fraction (including immature form). Using these as samples, measurement was performed by Western blot method using anti-SREBP-1 polyclonal antibody (Santa Cruz). Using Dual luciferase system (Promega), antagonizing action on LXR was evaluated by luciferase assay. p3xIR1-tk-Luc, pCMX-hLXRa, pRL-CMX were introduced into HepG2 cell. After culture in a 0.1% BSA-containing serum-free medium containing various fatty acids and T0901317 for 24 hr, the luciferase activity was measured.

[2] = target: T2, PPARα (Homo sapiens, UniProt Q07869); assay: PPARα ligand activity, GAL4-PPARα reporter luciferase assay in CV-1 cells; type: cell-based; conditions: 24 hr incubation, KetoA and HYA each at 30 μM, other fatty acids by a similar method
T2 construct: expressed in transfected cells; host or cells: CV-1 (African green monkey kidney)
T2 sequence (Q07869 239-466 limits assumed): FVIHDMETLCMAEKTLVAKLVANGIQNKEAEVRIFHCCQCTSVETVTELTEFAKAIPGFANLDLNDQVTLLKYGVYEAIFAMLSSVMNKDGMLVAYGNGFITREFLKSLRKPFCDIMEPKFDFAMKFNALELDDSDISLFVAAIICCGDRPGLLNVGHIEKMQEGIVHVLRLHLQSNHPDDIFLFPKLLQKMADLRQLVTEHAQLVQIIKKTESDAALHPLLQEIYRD
Method: To evaluate the function of oxo fatty acid and the like, PPARα, γ-activating action was measured first. The measurement was performed in reference to Nobuyuki Takahashi et al., FEES Letters 514 (2002) p. 315-322, “Dual action of isoprenols from herbal medicines on both PPARgamma and PPARalpha in 3T3-L1 adipocytes and HepG2 hepatocytes.”, the section of Materials and Methods “Reporter plasmids and luciferase assays”. To be specific, a plasmid containing DNA encoding a fused protein of PPARα, γ ligand binding region and GAL4 DNA binding region (pM-hPPARα or pM-hPPARγ), a reporter plasmid containing GAL4 binding DNA sequence linked to luciferase (p4xUASg-tk-luc), and internal control (pRL-CMV) to standardize transfection efficiency were introduced into CV-1 cell derived from the kidney of African green monkey. The ligand described below was added to the cells and, after incubation for 24 hr, luciferase activity was measured. As a ligand, KetoA and HYA were each added at 30 μM.
The concentration of the sample was adjusted with ethanol. Ethanol was used as a negative control, […], and GW7647 (10 nM) and Troglitazone (5 μM) were used as […].

[3] = tested on: HepG2 cells; assay: Intracellular triacylglycerol accumulation by LXR agonist; type: cell-based, human; conditions: 10 nM T0901317 + 60 μM fatty acid, 24 hr
Method: HepG2 cells (2.0×10^5 cells/mL) were cultured in DMEM medium containing 10% FES for 24 hr, and the medium was exchanged with 0.1% BSA-containing DMEM medium containing 10 nM LXR agonist T0901317 (Cayman Chemicals) and 60 μM various fatty acid. After culture for 24 hr, the cells were recovered, and total RNA was extracted using Sepasol reagent (Nacalai Tesque). After DNase treatment, reverse transcription was performed using SuperScriptII (Invitrogen) to give a cDNA solution. Using SYBR Green Mix (Bio-Rad, Richmond, Calif.) and gene-specific primer (Table 1), real-time PCR was performed as follows.
1. Reaction at 96° C., 15 min, 2. reaction at 96° C., 15 sec, 3. reaction at 60° C. for 30 sec, 4. measurement of fluorescence, 5. 2-4 were repeated 40 times, 6. the melting curve was measured from 65° C. to 95° C. at 0.4° C. intervals. As the internal standard, 18S rRNA was used. The genes involved in the fatty acid synthesis as measured were Sterol regulatory element binding protein-1c (SREBP-1c), Stearoyl coenzyme A desaturase-1 (SCD-1), Fatty acid synthase (FAS), and Acetyl CoA carboxylase-1 and -2 (ACC-1, 2). As for the amount of accumulated intracellular TG, the lipid was extracted with chloroform-methanol, and quantified by triglyceride-′E Test Wako (Wako Pure Chemical Industries, Ltd.).

Row | SMILES | antagonizing action on LXR (relative luciferase activity) [1] | lipid synthesis suppressive action by the antagonizing action on LXR [1] | PPARα agonist activity (relative luciferase activity) [2] | suppression of intracellular triacylglycerol increase by LXR agonist [3]
1 | CCCCC/C=C\CC(O)CCCCCCCCC(=O)O (stereo not drawn) [HYA, 10-hydroxy-cis-12-octadecenoic acid] | significantly suppress the action of T0901317 | strong lipid synthesis suppressive action | PPARα agonist activity | significantly suppressed
2 | CCCCC/C=C\CC(=O)CCCCCCCCC(=O)O [KetoA, 10-oxo-cis-12-octadecenoic acid] | significantly suppress the action of T0901317 | strong lipid synthesis suppressive action | strong PPARα and γ agonist activity | significantly suppressed
